This is an account of results in patent US20250243203A1, “NICOTINAMIDE- AND BENZAMIDE-BASED COMPOUNDS, CONJUGATES, AND COMPOSITIONS AS INHIBITORS OF TRANSLATIONAL- AND TRANSCRIPTIONAL-RELATED KINASES” (PURDUE RESEARCH FOUNDATION, priority 2022, published 2025).

For one data set, the system named is CT-26 C2 tumor cells. The data set can be described thus: CT-26 in vivo tumor reduction. More on the design: species or system BALB/c female mouse. To be noted: CT-26, day 17 from start of dosing, oral QD. Here is the method:
Each BALB/c female mouse was inoculated subcutaneously at the right flank with CT-26 C2 tumor cells (0.3×10^6/mouse) in 0.1 mL PBS for tumor development. Treatments for the efficacy study were started on day 10 after tumor inoculation when the average tumor size reached approximately 71 mm^3. Each group consisted of 6 tumor-bearing mice. Vehicle control was 25 mM citrate buffer (pH 2.5). HSND80 was dosed orally QD at 15 mg/Kg for 4 days and 10 mg/Kg afterwards. HSND100 was dosed at 15 mg/Kg. Mice were dosed 5 days on and 2 days off (drug holiday). Tumors were measured every other day (L, W, H) to give tumor volume in mm^3.

In data set [1] the test system is MDA-MB-231 (breast cancer). The data set can be described thus: Growth inhibition of MDA-MB-231 (NCI-60 human tumor cell line screen). The format is cell-based. To be noted: NCI-60 screening.
In the next data set the target is p70S6K (Homo sapiens, UniProt P23443). The data set can be described thus: p70S6K inhibition, in vitro studies at Reaction Biology Corporation. The class given is biochemical. To be noted: 25 nM compound, [ATP]=10 uM. Here is the method:
The nature of the substituent on the imidazo[1,2-b]pyridazine moiety at position-6 was evaluated in in vitro studies performed at Reaction Biology Corporation (Malvern, PA). The results indicated the specific substituent dramatically affected the inhibition of p70S6K.

The next data set concerns the target MNK2 (Homo sapiens, UniProt Q9HBH9). The data set can be described thus: MNK2 inhibition, in vitro studies at Reaction Biology Corporation. To be noted: 50 nM compound, 10 uM ATP. The format is biochemical.
The target in data set [2] is T1, AXL receptor tyrosine kinase (AXL) (Homo sapiens, UniProt P30530).
T1 construct: purchased Eurofins DiscoverX (KINOMEscan service)
T1 sequence (P30530 26-894): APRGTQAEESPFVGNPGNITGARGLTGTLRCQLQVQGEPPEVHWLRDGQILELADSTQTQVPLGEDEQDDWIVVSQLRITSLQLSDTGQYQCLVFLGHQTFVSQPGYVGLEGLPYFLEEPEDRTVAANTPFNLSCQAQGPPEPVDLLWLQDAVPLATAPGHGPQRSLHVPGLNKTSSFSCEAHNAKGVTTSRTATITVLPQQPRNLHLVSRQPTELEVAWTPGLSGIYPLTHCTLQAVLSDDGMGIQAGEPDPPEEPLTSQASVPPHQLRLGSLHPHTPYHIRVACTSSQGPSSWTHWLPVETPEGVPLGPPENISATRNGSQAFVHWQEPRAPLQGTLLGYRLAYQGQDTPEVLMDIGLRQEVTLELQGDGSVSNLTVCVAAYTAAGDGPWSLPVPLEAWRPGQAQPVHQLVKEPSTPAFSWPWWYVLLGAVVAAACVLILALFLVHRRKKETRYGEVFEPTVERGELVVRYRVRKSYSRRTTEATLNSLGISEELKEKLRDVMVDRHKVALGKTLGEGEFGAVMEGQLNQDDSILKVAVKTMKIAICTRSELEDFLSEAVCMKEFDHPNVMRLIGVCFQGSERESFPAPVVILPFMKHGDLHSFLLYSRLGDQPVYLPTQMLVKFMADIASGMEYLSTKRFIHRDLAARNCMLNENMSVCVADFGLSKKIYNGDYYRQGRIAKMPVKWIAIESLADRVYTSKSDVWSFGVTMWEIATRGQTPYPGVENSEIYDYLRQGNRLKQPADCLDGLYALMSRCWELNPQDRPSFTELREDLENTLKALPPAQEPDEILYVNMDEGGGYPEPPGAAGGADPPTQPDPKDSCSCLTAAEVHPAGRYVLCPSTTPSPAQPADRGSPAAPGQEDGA
The data set can be described thus: KINOMEscan competition binding assay (Eurofins DiscoverX), AXL. How it is done: The affinity of several compounds hereof having a substituent on the imidazo[1,2-b]pyridazine moiety at position-6, wherein the substituent comprised one or more ring moieties was evaluated with respect to two TAM kinases: AXL and MERTK. […] The assay uses DNA-tagged kinase, an immobilized ligand, and the test compound. Quantitative polymerase chain reaction (PCR) of the DNT tag was then used to measure the ability of the tested compound to displace the immobilized ligand.

For data set [3], the target named is T2, MER Proto-Oncogene tyrosine kinase (MERTK) (Homo sapiens, UniProt Q12866).
T2 construct: purchased Eurofins DiscoverX (KINOMEscan service)
T2 sequence (Q12866 21-999): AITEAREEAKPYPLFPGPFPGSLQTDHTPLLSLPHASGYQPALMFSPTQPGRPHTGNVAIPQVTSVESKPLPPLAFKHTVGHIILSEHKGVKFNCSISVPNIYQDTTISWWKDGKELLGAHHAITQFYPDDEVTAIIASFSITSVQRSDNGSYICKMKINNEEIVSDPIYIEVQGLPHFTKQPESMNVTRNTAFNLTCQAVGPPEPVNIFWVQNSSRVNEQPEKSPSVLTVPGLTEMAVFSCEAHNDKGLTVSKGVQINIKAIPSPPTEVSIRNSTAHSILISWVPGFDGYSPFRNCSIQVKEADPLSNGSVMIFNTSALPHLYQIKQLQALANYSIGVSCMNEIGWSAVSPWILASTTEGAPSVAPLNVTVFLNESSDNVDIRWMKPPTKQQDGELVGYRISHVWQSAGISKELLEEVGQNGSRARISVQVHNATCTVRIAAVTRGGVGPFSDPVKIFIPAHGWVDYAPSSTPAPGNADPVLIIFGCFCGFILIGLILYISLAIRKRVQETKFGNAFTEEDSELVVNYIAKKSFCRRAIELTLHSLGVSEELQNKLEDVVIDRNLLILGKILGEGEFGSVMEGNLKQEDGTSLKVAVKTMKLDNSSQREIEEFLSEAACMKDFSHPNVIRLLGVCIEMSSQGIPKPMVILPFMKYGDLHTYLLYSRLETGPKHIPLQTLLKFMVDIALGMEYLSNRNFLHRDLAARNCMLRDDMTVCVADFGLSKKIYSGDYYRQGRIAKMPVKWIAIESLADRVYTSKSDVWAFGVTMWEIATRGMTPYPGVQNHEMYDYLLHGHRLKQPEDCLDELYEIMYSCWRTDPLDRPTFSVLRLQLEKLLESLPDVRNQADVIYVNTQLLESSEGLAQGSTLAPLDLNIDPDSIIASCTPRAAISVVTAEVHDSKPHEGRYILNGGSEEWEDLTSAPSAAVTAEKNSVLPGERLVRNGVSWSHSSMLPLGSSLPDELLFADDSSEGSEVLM
The data set can be described thus: KINOMEscan competition binding assay (Eurofins DiscoverX), MERTK. How it is done:
The affinity of several compounds hereof having a substituent on the imidazo[1,2-b]pyridazine moiety at position-6, wherein the substituent comprised one or more ring moieties was evaluated with respect to two TAM kinases: AXL and MERTK. Perhaps more specifically, the equilibrium dissociation constant between each of compounds HSND141, compound HSND149, HSND150, HSND151, and HSND80 and AXL and MERTK was evaluated at Eurofins DiscoverX using KINOMEscan™, which is a competition binding assay that quantitively measured the ability of each tested compound to displace an immobilized, active-site directed ligand. The assay uses DNA-tagged kinase, an immobilized ligand, and the test compound. Quantitative polymerase chain reaction (PCR) of the DNT tag was then used to measure the ability of the tested compound to displace the immobilized ligand.

For data set [4] the following is noted: patients on ponatinib; cited from earlier work.
[5] abbreviates: Table 1, DiscoverX Eurofins, read-out: Kd AXL.
Setting [6] is: Table 1, DiscoverX Eurofins, read-out: Kd MERTK.

Where two headings read alike, the source gives them in different places.

Chain of p70S6K (P23443 whole entry): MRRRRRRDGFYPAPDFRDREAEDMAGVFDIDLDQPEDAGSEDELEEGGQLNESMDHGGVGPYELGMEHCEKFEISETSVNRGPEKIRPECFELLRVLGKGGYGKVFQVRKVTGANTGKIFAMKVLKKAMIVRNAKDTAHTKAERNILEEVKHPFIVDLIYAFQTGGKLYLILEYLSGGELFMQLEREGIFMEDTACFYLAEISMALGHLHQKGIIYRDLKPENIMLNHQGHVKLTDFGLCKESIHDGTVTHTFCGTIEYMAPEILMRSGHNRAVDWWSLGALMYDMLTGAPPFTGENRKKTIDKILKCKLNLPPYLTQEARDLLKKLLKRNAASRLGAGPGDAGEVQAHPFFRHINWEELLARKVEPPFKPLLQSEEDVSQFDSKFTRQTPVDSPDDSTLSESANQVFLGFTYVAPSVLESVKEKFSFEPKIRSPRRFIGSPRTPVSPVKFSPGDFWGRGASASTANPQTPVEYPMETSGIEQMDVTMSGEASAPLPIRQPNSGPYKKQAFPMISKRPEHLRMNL
Chain of MNK2 (Q9HBH9 whole entry): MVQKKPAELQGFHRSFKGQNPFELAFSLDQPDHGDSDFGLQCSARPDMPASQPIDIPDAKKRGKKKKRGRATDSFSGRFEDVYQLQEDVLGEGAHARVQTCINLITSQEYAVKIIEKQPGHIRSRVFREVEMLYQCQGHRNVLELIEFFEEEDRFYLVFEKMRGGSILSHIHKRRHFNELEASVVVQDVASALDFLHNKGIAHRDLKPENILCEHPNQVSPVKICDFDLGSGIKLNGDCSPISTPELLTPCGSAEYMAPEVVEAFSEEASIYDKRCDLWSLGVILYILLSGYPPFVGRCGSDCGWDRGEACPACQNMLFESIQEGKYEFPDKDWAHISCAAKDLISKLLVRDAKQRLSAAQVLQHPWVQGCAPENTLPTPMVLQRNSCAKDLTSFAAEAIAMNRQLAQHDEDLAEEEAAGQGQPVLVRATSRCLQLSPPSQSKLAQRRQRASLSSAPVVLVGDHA

With `CC1CN(c2ccc3ncc(C#Cc4cncc(C(=O)Nc5ccc(CN6CCN(C)CC6)c(C(F)(F)F)c5)c4)n3n2)C[C@@H](C)O1` (stereo in doubt) [HSND100, 5-((6-((2R,6R)-2,6-Dimethylmorpholino)imidazo[1,2-b]pyridazin-3-yl)ethynyl)-N-(4-((4-methylpiperazin-1-yl)methyl)-3-(trifluoromethyl)phenyl)nicotinamide], the “tumor reduction compared to vehicle control” value in the data set on CT-26 C2 tumor cells came to 36%. For orientation: GI50 means the concentration that inhibits growth by half. Lower therefore signals greater sensitivity of the cells. Take `CN1CCN(Cc2ccc(NC(=O)c3cncc(C#Cc4cnc5ccc(N)nn45)c3)cc2C(F)(F)F)CC1` [HSND37, 5-((6-Aminoimidazo[1,2-b]pyridazin-3-yl)ethynyl)-N-(4-((4-methylpiperazin-1-yl)methyl)-3-(trifluoromethyl)phenyl)nicotinamide]: it took 413 nM to inhibit growth in data set [1] by half (GI50). The same measure, in the same setting: in the case of `CN(C)CCNc1ccc2ncc(C#Cc3cncc(C(=O)Nc4ccc(CN5CCN(C)CC5)c(C(F)(F)F)c4)c3)n2n1` [HSND39, 5-((6-((2-(Dimethylamino)ethyl)amino)imidazo[1,2-b]pyridazin-3-yl)ethynyl)-N-(4-((4-methylpiperazin-1-yl)methyl)-3-(trifluoromethyl)phenyl)nicotinamide] it was 571 nM; in that of `CN(C)CCN(C)c1ccc2ncc(C#Cc3cncc(C(=O)Nc4ccc(CN5CCN(C)CC5)c(C(F)(F)F)c4)c3)n2n1` [HSND40, 5-((6-((2-(Dimethylamino)ethyl)(methyl)amino)imidazo[1,2-b]pyridazin-3-yl)ethynyl)-N-(4-((4-methylpiperazin-1-yl)methyl)-3-(trifluoromethyl)phenyl)nicotinamide], 889 nM. For the molecule `CN1CCN(Cc2ccc(NC(=O)c3cncc(C#Cc4cnc5ccc(N6CCOCC6)nn45)c3)cc2C(F)(F)F)CC1` [HSND41, N-(4-((4-Methylpiperazin-1-yl)methyl)-3-(trifluoromethyl)phenyl)-5-((6-morpholinoimidazo[1,2-b]pyridazin-3-yl)ethynyl)nicotinamide], halving of growth in data set [1] (GI50) required 35 nM. In general, inhibition refers to the percentage by which the read-out fell short of the control. Low readings indicate a weak effect, high ones a strong effect. Consider `CN1CCN(Cc2ccc(NC(=O)c3cncc(C#Cc4cnc5ccc(N6CCN(C)CC6)nn45)c3)cc2C(F)(F)F)CC1` [HSND77, 5-((6-(4-Methylpiperazin-1-yl)imidazo[1,2-b]pyridazin-3-yl)ethynyl)-N-(4-((4-methylpiperazin-1-yl)methyl)-3-(trifluoromethyl)phenyl)nicotinamide], for which, on p70S6K, the “inhibition of p70S6K” value stood at 95%. Moreover, 0.05 µM produced 92% inhibition against MNK2. For the molecule `CN1CCN(Cc2ccc(NC(=O)c3cncc(C#Cc4cnc5ccc(N6CCSCC6)nn45)c3)cc2C(F)(F)F)CC1` [HSND79, N-(4-((4-Methylpiperazin-1-yl)methyl)-3-(trifluoromethyl)phenyl)-5-((6-thiomorpholinoimidazo[1,2-b]pyridazin-3-yl)ethynyl)nicotinamide], the “inhibition of p70S6K” value against p70S6K stood at 95%. In addition, the inhibition at 0.05 µM on MNK2 worked out at 94%. Broadly, the Kd is a measure of binding affinity in units of concentration. Consider `CN1CCN(Cc2ccc(NC(=O)c3cncc(C#Cc4cnc5ccc(N6C7CCC6COC7)nn45)c3)cc2C(F)(F)F)CC1` [HSND141, 5-((6-(3-Oxa-8-azabicyclo[3.2.1]octan-8-yl)imidazo[1,2-b]pyridazin-3-yl)ethynyl)-N-(4-((4-methylpiperazin-1-yl)methyl)-3-(trifluoromethyl)phenyl)nicotinamide], for which the equilibrium dissociation constant (Kd) in data set [2] turned out to be 1.2 nM; in data set [3], 0.22 nM. On to `CN1CCN(Cc2ccc(NC(=O)c3cncc(C#Cc4cnc5ccc(N6CC7(COC7)C6)nn45)c3)cc2C(F)(F)F)CC1` [HSND149, 5-((6-(2-Oxa-6-azaspiro[3.3]heptan-6-yl)imidazo[1,2-b]pyridazin-3-yl)ethynyl)-N-(4-((4-methylpiperazin-1-yl)methyl)-3-(trifluoromethyl)phenyl)nicotinamide], for which the Kd in data set [2] (setting [5]) was 3.7 nM; in data set [3] (setting [6]), 0.2 nM. As to `CN1CCN(Cc2ccc(NC(=O)c3cncc(C#Cc4cnc5ccc(N6C[C@H]7C[C@@H]6CO7)nn45)c3)cc2C(F)(F)F)CC1` [HSND150, 5-((6-((1R,4R)-2-Oxa-5-azabicyclo[2.2.1]heptan-5-yl)imidazo[1,2-b]pyridazin-3-yl)ethynyl)-N-(4-((4-methylpiperazin-1-yl)methyl)-3-(trifluoromethyl)phenyl)nicotinamide], the Kd was 2.8 nM in data set [2] (setting [5]) and less than 0.17 nM in data set [3] (setting [6]). For `CN1CCN(Cc2ccc(NC(=O)c3cncc(C#Cc4cnc5ccc(N6C[C@@H]7C[C@H]6CO7)nn45)c3)cc2C(F)(F)F)CC1` [HSND151, 5-((6-((1S,4S)-2-Oxa-5-azabicyclo[2.2.1]heptan-5-yl)imidazo[1,2-b]pyridazin-3-yl)ethynyl)-N-(4-((4-methylpiperazin-1-yl)methyl)-3-(trifluoromethyl)phenyl)nicotinamide] the same measures were 3.3 nM and less than 0.17 nM.

In the case of `Cc1ccc(C(=O)Nc2ccc(CN3CCN(C)CC3)c(C(F)(F)F)c2)cc1C#Cc1cnc2cccnn12` [ponatinib, Ponatinib, reference compound], the “inhibition of p70S6K” value against p70S6K is recorded as 38%. In addition, the “patients developing some form of thrombosis” value in data set [4] is “about 40%”.
